Source: patent US20230085307A1, “PYRIDAZINONE COMPOUND AND HERBICIDE” (NISSAN CHEMICAL CORPORATION, priority 2019, published 2023)

How the values were obtained:
late watergrass = assay: Test Example 1: herbicidal activity, application before weed generation under submerged conditions (Table 16, symbol A); type: in vivo, late watergrass (Echinochloa oryzicola); conditions: amount of applied herbicide 320 g/ha
Procedure, shortened: (§1)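 Emulsion formulation, water-diluted to set dose, was put onto the flooded surface (4 cm depth, alluvial soil) the same day weeds were sown and 2.5-leaf rice transplanted. After 3 weeks at 25-30 °C under glass, each species was rated 0 (≤5% kill) to 5 (≥90% kill).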

Japanese bulrush = assay: Test Example 1: herbicidal activity, application before weed generation under submerged conditions (Table 16, symbol B); type: in vivo, Japanese bulrush (Schoenoplectus juncoides); conditions: amount of applied herbicide 320 g/ha
Procedure, shortened: as §1

oval-leafed pondweed = assay: Test Example 1: herbicidal activity, application before weed generation under submerged conditions (Table 16, symbol C); type: in vivo, oval-leafed pondweed (Monochoria vaginalis); conditions: amount of applied herbicide 320 g/ha
Procedure, shortened: as §1

barnyard grass [1] = assay: Test Example 3: herbicidal effect by foliage application, Wagner pot (Table 18, symbol H); type: in vivo, barnyard grass (Echinochloa crus-galli); conditions: 344 g/ha
Procedure, shortened: (§2)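 Plants were sown in alluvial soil held under 0.1–0.5 cm standing water and grown 14 days in a greenhouse at 25–30 °C. An emulsifiable formulation, water-diluted to the set dose, was then sprayed onto the foliage, and effects were scored three weeks later using previously defined criteria.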

Chinese sprangletop = assay: Test Example 3: herbicidal effect by foliage application, Wagner pot (Table 18, symbol D); type: in vivo, chinese sprangletop (Leptochloa chinensis); conditions: 344 g/ha
Procedure, shortened: as §2

rice flat sedge = assay: Test Example 3: herbicidal effect by foliage application, Wagner pot (Table 18, symbol E); type: in vivo, rice flat sedge (Cyperus iria); conditions: 344 g/ha
Procedure, shortened: as §2

southern crabgrass [2] = assay: Test Example 4: herbicidal effect by soil treatment (Table 19, symbol F); type: in vivo, southern crabgrass (Digitaria ciliaris); conditions: amount of applied herbicide 320 g/ha
Procedure, shortened: (§3)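 Applied as a water-diluted emulsion, the compound was sprayed onto soil covering newly sown seeds. Evaluation came three weeks after application, in a greenhouse held at 25° C. to 30° C.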

green foxtail [3] = assay: Test Example 4: herbicidal effect by soil treatment (Table 19, symbol G); type: in vivo, green foxtail (Setaria viridis); conditions: amount of applied herbicide 320 g/ha
Procedure, shortened: as §3

barnyard grass [4] = assay: Test Example 4: herbicidal effect by soil treatment (Table 19, symbol H); type: in vivo, barnyard grass (Echinochloa crus-galli); conditions: amount of applied herbicide 320 g/ha
Procedure, shortened: as §3

wild oat [5] = assay: Test Example 4: herbicidal effect by soil treatment (Table 19, symbol I); type: in vivo, wild oat (Avena fatua); conditions: amount of applied herbicide 320 g/ha
Procedure, shortened: as §3

blackgrass [6] = assay: Test Example 4: herbicidal effect by soil treatment (Table 19, symbol J); type: in vivo, blackgrass (Alopecurus myosuroides); conditions: amount of applied herbicide 320 g/ha
Procedure, shortened: as §3

Italian ryegrass [7] = assay: Test Example 4: herbicidal effect by soil treatment (Table 19, symbol K); type: in vivo, Italian ryegrass (Lolium multiflorum); conditions: amount of applied herbicide 320 g/ha
Procedure, shortened: as §3

windgrass [8] = assay: Test Example 4: herbicidal effect by soil treatment (Table 19, symbol L); type: in vivo, windgrass (Apera spica-venti); conditions: amount of applied herbicide 320 g/ha
Procedure, shortened: as §3

velvetleaf [9] = assay: Test Example 4: herbicidal effect by soil treatment (Table 19, symbol M); type: in vivo, velvetleaf (Abutilon theophrasti); conditions: amount of applied herbicide 320 g/ha
Procedure, shortened: as §3

redroot pigweed [10] = assay: Test Example 4: herbicidal effect by soil treatment (Table 19, symbol N); type: in vivo, redroot pigweed (Amaranthus retroflexus); conditions: amount of applied herbicide 320 g/ha
Procedure, shortened: as §3

lambsquarters [11] = assay: Test Example 4: herbicidal effect by soil treatment (Table 19, symbol O); type: in vivo, lambsquarters (Chenopodium album); conditions: amount of applied herbicide 320 g/ha
Procedure, shortened: as §3

chickweed [12] = assay: Test Example 4: herbicidal effect by soil treatment (Table 19, symbol P); type: in vivo, common chickweed (Stellaria media); conditions: amount of applied herbicide 320 g/ha
Procedure, shortened: as §3

persian speedwell [13] = assay: Test Example 4: herbicidal effect by soil treatment (Table 19, symbol R); type: in vivo, Persian speedwell (Veronica persica); conditions: amount of applied herbicide 320 g/ha
Procedure, shortened: as §3

southern crabgrass [14] = assay: Test Example 5: herbicidal effect by foliage application, plastic box (Table 20, symbol F); type: in vivo, southern crabgrass (Digitaria ciliaris); conditions: amount of applied herbicide 320 g/ha; foliage application after 14-day growth; evaluated three weeks after application
Procedure, shortened: (§4)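 Sow seeds spot-wise in sterilized diluvial soil; cover with ~1.5 cm soil. Grow 14 days in greenhouse, 25° C. to 30° C. Spray foliage with emulsion diluted to predetermined amount. Rate effect after 3 weeks.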

green foxtail [15] = assay: Test Example 5: herbicidal effect by foliage application, plastic box (Table 20, symbol G); type: in vivo, green foxtail (Setaria viridis); conditions: amount of applied herbicide 320 g/ha; foliage application after 14-day growth; evaluated three weeks after application
Procedure, shortened: as §4

barnyard grass [16] = assay: Test Example 5: herbicidal effect by foliage application, plastic box (Table 20, symbol H); type: in vivo, barnyard grass (Echinochloa crus-galli); conditions: amount of applied herbicide 320 g/ha; foliage application after 14-day growth; evaluated three weeks after application
Procedure, shortened: as §4

wild oat [17] = assay: Test Example 5: herbicidal effect by foliage application, plastic box (Table 20, symbol I); type: in vivo, wild oat (Avena fatua); conditions: amount of applied herbicide 320 g/ha; foliage application after 14-day growth; evaluated three weeks after application
Procedure, shortened: as §4

blackgrass [18] = assay: Test Example 5: herbicidal effect by foliage application, plastic box (Table 20, symbol J); type: in vivo, blackgrass (Alopecurus myosuroides); conditions: amount of applied herbicide 320 g/ha; foliage application after 14-day growth; evaluated three weeks after application
Procedure, shortened: as §4

Italian ryegrass [19] = assay: Test Example 5: herbicidal effect by foliage application, plastic box (Table 20, symbol K); type: in vivo, Italian ryegrass (Lolium multiflorum); conditions: amount of applied herbicide 320 g/ha; foliage application after 14-day growth; evaluated three weeks after application
Procedure, shortened: as §4

windgrass [20] = assay: Test Example 5: herbicidal effect by foliage application, plastic box (Table 20, symbol L); type: in vivo, windgrass (Apera spica-venti); conditions: amount of applied herbicide 320 g/ha; foliage application after 14-day growth; evaluated three weeks after application
Procedure, shortened: as §4

velvetleaf [21] = assay: Test Example 5: herbicidal effect by foliage application, plastic box (Table 20, symbol M); type: in vivo, velvetleaf (Abutilon theophrasti); conditions: amount of applied herbicide 320 g/ha; foliage application after 14-day growth; evaluated three weeks after application
Procedure, shortened: as §4

redroot pigweed [22] = assay: Test Example 5: herbicidal effect by foliage application, plastic box (Table 20, symbol N); type: in vivo, redroot pigweed (Amaranthus retroflexus); conditions: amount of applied herbicide 320 g/ha; foliage application after 14-day growth; evaluated three weeks after application
Procedure, shortened: as §4

lambsquarters [23] = assay: Test Example 5: herbicidal effect by foliage application, plastic box (Table 20, symbol O); type: in vivo, lambsquarters (Chenopodium album); conditions: amount of applied herbicide 320 g/ha; foliage application after 14-day growth; evaluated three weeks after application
Procedure, shortened: as §4

chickweed [24] = assay: Test Example 5: herbicidal effect by foliage application, plastic box (Table 20, symbol P); type: in vivo, common chickweed (Stellaria media); conditions: amount of applied herbicide 320 g/ha; foliage application after 14-day growth; evaluated three weeks after application
Procedure, shortened: as §4

persian speedwell [25] = assay: Test Example 5: herbicidal effect by foliage application, plastic box (Table 20, symbol R); type: in vivo, Persian speedwell (Veronica persica); conditions: amount of applied herbicide 320 g/ha; foliage application after 14-day growth; evaluated three weeks after application
Procedure, shortened: as §4

CCCC(=O)Oc1c(C)nn(C)c(=O)c1-c1c(-c2ccc(C(=O)OC)cc2)sc2cc(F)c(F)cc12 [5-028]
Herbicidal effect, A: late watergrass (late watergrass): 0 (Herbicidal rate of 5% or less (almost no effect)) | Herbicidal effect, B: Japanese bulrush (Japanese bulrush): 2 (Herbicidal rate of 20% or more and less than 40%) | Herbicidal effect, C: oval-leafed pondweed (oval-leafed pondweed): 2 (Herbicidal rate of 20% or more and less than 40%) | herbicidal effect on barnyard grass (H) (barnyard grass [1]): 5 (Herbicidal rate of 90% or more (almost completely withered)) | herbicidal effect on Chinese sprangletop (D) (Chinese sprangletop): 0 (Herbicidal rate of 5% or less (almost no effect)) | herbicidal effect on rice flat sedge (E) (rice flat sedge): 0 (Herbicidal rate of 5% or less (almost no effect)) | F: southern crabgrass, herbicidal effect grade (southern crabgrass [2]): 0 (Herbicidal rate of 5% or less (almost no effect)) | G: green foxtail, herbicidal effect grade (green foxtail [3]): 0 (Herbicidal rate of 5% or less (almost no effect)) | H: barnyard grass, herbicidal effect grade (barnyard grass [4]): 0 (Herbicidal rate of 5% or less (almost no effect)) | I: wild oat, herbicidal effect grade (wild oat [5]): 0 (Herbicidal rate of 5% or less (almost no effect)) | J: blackgrass, herbicidal effect grade (blackgrass [6]): 0 (Herbicidal rate of 5% or less (almost no effect)) | K: Italian ryegrass, herbicidal effect grade (Italian ryegrass [7]): 0 (Herbicidal rate of 5% or less (almost no effect)) | L: windgrass, herbicidal effect grade (windgrass [8]): 0 (Herbicidal rate of 5% or less (almost no effect)) | M: velvetleaf, herbicidal effect grade (velvetleaf [9]): 0 (Herbicidal rate of 5% or less (almost no effect)) | N: redroot pigweed, herbicidal effect grade (redroot pigweed [10]): 3 (Herbicidal rate of 40% or more and less than 70%) | O: lambsquarters, herbicidal effect grade (lambsquarters [11]): 2 (Herbicidal rate of 20% or more and less than 40%) | P: chickweed, herbicidal effect grade (chickweed [12]): 1 (Herbicidal rate of 5% or more and less than 20%) | R: persian speedwell, herbicidal effect grade (persian speedwell [13]): 1 (Herbicidal rate of 5% or more and less than 20%) | Herbicidal effect by foliage application, F: southern crabgrass (southern crabgrass [14]): 0 (Herbicidal rate of 5% or less (almost no effect)) | Herbicidal effect by foliage application, G: green foxtail (green foxtail [15]): 0 (Herbicidal rate of 5% or less (almost no effect)) | Herbicidal effect by foliage application, H: barnyard grass (barnyard grass [16]): 0 (Herbicidal rate of 5% or less (almost no effect)) | Herbicidal effect by foliage application, I: wild oat (wild oat [17]): 0 (Herbicidal rate of 5% or less (almost no effect)) | Herbicidal effect by foliage application, J: blackgrass (blackgrass [18]): 0 (Herbicidal rate of 5% or less (almost no effect)) | Herbicidal effect by foliage application, K: Italian ryegrass (Italian ryegrass [19]): 0 (Herbicidal rate of 5% or less (almost no effect)) | Herbicidal effect by foliage application, L: windgrass (windgrass [20]): 0 (Herbicidal rate of 5% or less (almost no effect)) | Herbicidal effect by foliage application, M: velvetleaf (velvetleaf [21]): 3 (Herbicidal rate of 40% or more and less than 70%) | Herbicidal effect by foliage application, N: redroot pigweed (redroot pigweed [22]): 3 (Herbicidal rate of 40% or more and less than 70%) | Herbicidal effect by foliage application, O: lambsquarters (lambsquarters [23]): 3 (Herbicidal rate of 40% or more and less than 70%) | Herbicidal effect by foliage application, P: chickweed (chickweed [24]): 5 (Herbicidal rate of 90% or more (almost completely withered)) | Herbicidal effect by foliage application, R: persian speedwell (persian speedwell [25]): 4 (Herbicidal rate of 70% or more and less than 90%)
